Consider 30 compounds from US10202370B2, “Benzimidazole derivatives as selective proteine kinase inhibitors” (AB SCIENCE, priority 2013, dated 2019).

Sequence of c-kit WT (P10721 26-976): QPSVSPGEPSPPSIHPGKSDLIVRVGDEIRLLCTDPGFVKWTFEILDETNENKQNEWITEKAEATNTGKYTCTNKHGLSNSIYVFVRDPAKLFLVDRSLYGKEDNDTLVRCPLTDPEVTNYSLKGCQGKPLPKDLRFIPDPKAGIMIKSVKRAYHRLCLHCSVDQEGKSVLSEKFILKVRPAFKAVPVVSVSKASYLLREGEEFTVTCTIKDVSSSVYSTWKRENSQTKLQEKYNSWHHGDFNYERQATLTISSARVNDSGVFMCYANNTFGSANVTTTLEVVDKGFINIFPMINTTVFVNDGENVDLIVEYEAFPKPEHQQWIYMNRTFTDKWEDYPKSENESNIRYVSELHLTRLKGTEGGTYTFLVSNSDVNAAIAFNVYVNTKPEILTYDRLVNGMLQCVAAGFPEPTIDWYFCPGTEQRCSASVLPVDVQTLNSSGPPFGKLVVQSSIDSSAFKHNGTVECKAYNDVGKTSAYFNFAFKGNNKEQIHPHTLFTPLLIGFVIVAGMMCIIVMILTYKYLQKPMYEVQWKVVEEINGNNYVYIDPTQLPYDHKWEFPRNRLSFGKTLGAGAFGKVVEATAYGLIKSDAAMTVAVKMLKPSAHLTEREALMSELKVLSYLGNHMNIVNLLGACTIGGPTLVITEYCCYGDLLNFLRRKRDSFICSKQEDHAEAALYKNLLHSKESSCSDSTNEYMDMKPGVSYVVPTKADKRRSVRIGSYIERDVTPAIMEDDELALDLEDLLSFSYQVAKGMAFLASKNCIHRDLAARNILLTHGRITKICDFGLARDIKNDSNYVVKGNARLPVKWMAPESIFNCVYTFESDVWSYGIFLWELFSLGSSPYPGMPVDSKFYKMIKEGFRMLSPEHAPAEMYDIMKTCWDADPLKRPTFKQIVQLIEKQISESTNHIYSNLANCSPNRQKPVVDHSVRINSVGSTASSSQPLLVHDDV

The target of the experiment is c-kit WT (Homo sapiens (Human), UniProt P10721). The experiment is described as follows: Proliferation assay (CellTiter-Blue) on BaF3 Kit WT cell line. It counts as cell-based. Conditions: BaF3 Kit WT cell line (murine Ba/F3 expressing Human Kit WT, with murine SCF), 48 hours. Here is the method:
Procedures of C-Kit WT Inhibition Assays:
Colorimetric cell proliferation and viability assay (reagent CellTiter-Blue purchased from Promega cat N°G8081) was performed on BaF3 Kit WT cell line.
A total of 2.10^4 cells/50 μl were seeded per well of a 96-wells plate. Treatment was initiated by addition of a 2× drug solution of ½ serial dilutions ranging from 0 to 10 μM. After incubating for 48 hours at 37° C., 10 μl of a ½ dilution of CellTiter-Blue reagent was added to each well and the plates were returned to the incubator for an additional 4 hours. The fluorescence intensity from the CellTiter-Blue reagent is proportional to the number of viable cells and data were recorded (544Ex/590Em) using a POLARstar OMEGA microplate reader (BMG LabteckSarl). A background control without cells was used as a blank. The positive control of the assay corresponds to the cell proliferation obtained in the absence of drug treatment (100% proliferation). Each sample was done in triplicate. The results were expressed as a percentage of the proliferation obtained in absence of treatment. All drugs were prepared as 20 mM stock solutions in DMSO and conserved at −80° C. Drug dilutions were made fresh in medium before each experiment. A DMSO control was included in each experiment.
The cell line expressing Human Kit WT was derived from the murine IL3-dependent Ba/F3 proB lymphoid cells. Ba/F3 Kit WT cells were maintained in RPMI medium containing 10% FCS and supplemented with 250 ng/ml of recombinant murine SCF.
Turning to `Cc1cc2nc(-c3cccc(C(F)F)c3)[nH]c2cc1Nc1nc(-c2ccc(C(N)=O)cc2)cs1` [Compound 071, 4-{2-[2-(3-Difluoromethyl-phenyl)-6-methyl-3H-benzoimidazol-5-ylamino]-thiazol-4-yl}-benzamide], the IC50 (usually the concentration at which inhibition is half-maximal) was no more than 1 µM.

For the compound `Cc1cccc(-c2nc3cc(Nc4nc(-c5ccncc5)cs4)c(C)cc3n2C(C)C)c1` [Compound 102, (1-Isopropyl-6-methyl-2-m-tolyl-1H-benzoimidazol-5-yl)-(4-pyridin-4-yl-thiazol-2-yl)-amine], the IC50 was no more than 1 µM.

The compound `Cc1cc2c(cc1Nc1nc(-c3ccncc3)cs1)nc(-c1cccc(OC(F)(F)F)c1)n2C` [Compound 083, [1,6-Dimethyl-2-(3-trifluoromethoxy-phenyl)-1H-benzoimidazol-5-yl]-(4-pyridin-4-yl-thiazol-2-yl)-amine] had an IC50 of no more than 1 µM.

As to `Cc1cc2nc(-c3cccc(OC(F)(F)F)c3)[nH]c2cc1Nc1nc(-c2ccncc2)cs1` [Compound 047, [6-Methyl-2-(3-trifluoromethoxy-phenyl)-3H-benzoimidazol-5-yl]-(4-pyridin-4-yl-thiazol-2-yl)-amine], the IC50 is no more than 1 µM.

`Cc1cc2nc(-c3ccc(F)cc3)[nH]c2cc1Nc1nc(-c2cccnc2)cs1` [Compound 060, [2-(4-Fluoro-phenyl)-6-methyl-1H-benzoimidazol-5-yl]-(4-pyridin-3-yl-thiazol-2-yl)-amine] showed an IC50 of 1 to 10 µM.

In turn, `Cc1cc2nc(-c3cc(CN4CCN(C)CC4)cc(C(F)(F)F)c3)[nH]c2cc1Nc1nccc(-c2cccnc2)n1` [Compound 040, {6-Methyl-2-[3-(4-methyl-piperazin-1-ylmethyl)-5-trifluoromethyl-phenyl]-3H-benzoimidazol-5-yl}-(4-pyridin-3-yl-pyrimidin-2-yl)-amine] registered an IC50 of 1 to 10 µM.

In the case of `Cc1cc2c(cc1Nc1nc(-c3ccnc(Cl)c3)cs1)nc(-c1cccc(C(F)F)c1)n2C` [Compound 119, [4-(2-Chloro-pyridin-4-yl)-thiazol-2-yl]-[2-(3-difluoromethyl-phenyl)-1,6-dimethyl-1H-benzoimidazol-5-yl]-amine], the IC50 is no more than 1 µM.

`Cc1cc2c(cc1Nc1nc(-c3ccc(C#N)cc3)cs1)nc(-c1cccc(C(C)C)c1)n2C` [Compound 142, 4-{2-[2-(3-Isopropyl-phenyl)-1,6-dimethyl-1H-benzoimidazol-5-ylamino]-thiazol-4-yl}-benzonitrile] displayed an IC50 of no more than 1 µM.

In the case of `Cc1cccc(-c2nc3cc(C)c(Nc4nc(-c5ccncc5)cs4)cc3[nH]2)c1` [Compound 034, (6-Methyl-2-m-tolyl-3H-benzoimidazol-5-yl)-(4-pyridin-4-yl-thiazol-2-yl)-amine], the IC50 was no more than 1 µM.

For the compound `C=CS(=O)(=O)Nc1cccc(-c2nc3cc(Nc4nc(-c5ccncc5)cs4)c(C)cc3n2C)c1` [Compound 135, Ethenesulfonic acid {3-[1,6-dimethyl-5-(4-pyridin-4-yl-thiazol-2-ylamino)-1H-benzoimidazol-2-yl]-phenyl}-amide], the IC50 was in the range of 1 to 10 µM.

The compound `Cc1cc2c(cc1Nc1nc(-c3ccc(C#N)cc3)cs1)nc(-c1cccc(C(F)(F)F)c1)n2C` [Compound 114, 4-{2-[1,6-Dimethyl-2-(3-trifluoromethyl-phenyl)-1H-benzoimidazol-5-ylamino]-thiazol-4-yl}-benzonitrile] came in with an IC50 of no more than 1 µM.

Compound `Cc1cc2[nH]c(-c3cc(F)cc(C(F)(F)F)c3)nc2cc1Nc1nc(-c2ccncc2)cs1` [Compound 149, [2-(3-Fluoro-5-trifluoromethyl-phenyl)-6-methyl-1H-benzoimidazol-5-yl]-(4-pyridin-4-yl-thiazol-2-yl)-amine] showed an IC50 of no more than 1 µM.

In turn, `Cc1cc2c(cc1Nc1nc(-c3ccncc3)cs1)nc(-c1cccc(S(C)(=O)=O)c1)n2C` [Compound 120, [2-(3-Methanesulfonyl-phenyl)-1,6-dimethyl-1H-benzoimidazol-5-yl]-(4-pyridin-4-yl-thiazol-2-yl)-amine] registered an IC50 of no more than 1 µM.

In turn, `Cc1cc2nc(-c3cccc(C(F)F)c3)n(C)c2cc1Nc1nc(-c2cccnc2)cs1` [Compound 113, [2-(3-Difluoromethyl-phenyl)-3,6-dimethyl-3H-benzoimidazol-5-yl]-(4-pyridin-3-yl-thiazol-2-yl)-amine] came in with an IC50 of 1 to 10 µM.

Compound `Cc1cc2nc(-c3ccc(C(F)(F)F)cc3)[nH]c2cc1Nc1nccc(-c2cccnc2)n1` [Compound 027, [6-Methyl-2-(4-trifluoromethyl-phenyl)-3H-benzoimidazol-5-yl]-(4-pyridin-3-yl-pyrimidin-2-yl)-amine] yielded an IC50 of 1 to 10 µM.

In turn, `Cc1cc2nc(-c3ccc(C(F)(F)F)cc3)[nH]c2cc1Nc1nc(-c2ccc(C(N)=O)cc2)cs1` [Compound 072, 4-{2-[6-Methyl-2-(4-trifluoromethyl-phenyl)-3H-benzoimidazol-5-ylamino]-thiazol-4-yl}-benzamide] registered an IC50 of no more than 1 µM.

For `Cc1cc2nc(-c3cc(C(C)(C)C)ccc3OCCN(C)C)[nH]c2cc1Nc1nccc(-c2cccnc2)n1` [Compound 036, {2-[5-tert-Butyl-2-(2-dimethylamino-ethoxy)-phenyl]-6-methyl-3H-benzoimidazol-5-yl}-(4-pyridin-3-yl-pyrimidin-2-yl)-amine], the IC50 was in the range of 1 to 10 µM.

Compound `Cc1cc2c(cc1Nc1nc(-c3ccncc3)cs1)nc(-c1cc(F)cc(C(F)(F)F)c1)n2C` [Compound 147, [2-(3-Fluoro-5-trifluoromethyl-phenyl)-1,6-dimethyl-1H-benzoimidazol-5-yl]-(4-pyridin-4-yl-thiazol-2-yl)-amine] showed an IC50 of no more than 1 µM.

`FC(F)c1cccc(-c2nc3cc(Nc4nc(-c5cccnc5)cs4)ccc3[nH]2)c1` [Compound 087, [2-(3-Difluoromethyl-phenyl)-1H-benzoimidazol-5-yl]-(4-pyridin-3-yl-thiazol-2-yl)-amine] registered an IC50 of no more than 1 µM.

Compound `Cc1cc2nc(-c3ccccc3C)[nH]c2cc1Nc1nc(-c2cccnc2)cs1` [Compound 001, (6-Methyl-2-o-tolyl-3H-benzoimidazol-5-yl)-(4-pyridin-3-yl-thiazol-2-yl)-amine] displayed an IC50 of 1 to 10 µM.

For `Cc1cc2nc(Cc3ccc(C(F)(F)F)cc3)[nH]c2cc1Nc1ncc(-c2ccncc2)o1` [Compound 054, [6-Methyl-2-(4-trifluoromethyl-benzyl)-3H-benzoimidazol-5-yl]-(5-pyridin-4-yl-oxazol-2-yl)-amine], the IC50 is 1 to 10 µM.

For `Cc1cc2nc(-c3cccc(CN4CCN(C)CC4)c3)[nH]c2cc1Nc1nc(-c2cccnc2)cs1` [Compound 044, {6-Methyl-2-[3-(4-methyl-piperazin-1-ylmethyl)-phenyl]-1H-benzoimidazol-5-yl}-(4-pyridin-3-yl-thiazol-2-yl)-amine], the IC50 fell in the range of 1 to 10 µM.

Consider `Cc1cc2c(cc1Nc1nc(-c3cccnc3)cs1)nc(-c1cccc(OC(F)(F)F)c1)n2C` [Compound 086, [1,6-Dimethyl-2-(3-trifluoromethoxy-phenyl)-1H-benzoimidazol-5-yl]-(4-pyridin-3-yl-thiazol-2-yl)-amine], for which the IC50 was no more than 1 µM.

`Cc1cc2nc(-c3cc(CN4CCOCC4)cc(C(F)(F)F)c3)[nH]c2cc1Nc1nc(-c2cccnc2)cs1` [Compound 020, [6-Methyl-2-(3-morpholin-4-ylmethyl-5-trifluoromethyl-phenyl)-3H-benzoimidazol-5-yl]-(4-pyridin-3-yl-thiazol-2-yl)-amine] displayed an IC50 of no more than 1 µM.

Regarding `C=CS(=O)(=O)Nc1cc(-c2nc3cc(Nc4nc(-c5ccncc5)cs4)c(C)cc3n2C)cc(C(F)(F)F)c1` [Compound 122, Ethenesulfonic acid {3-[1,6-dimethyl-5-(4-pyridin-4-yl-thiazol-2-ylamino)-yl]-5-trifluoromethyl-phenyl}-amide], the IC50 fell in the range of 1 to 10 µM.

With `CCS(=O)(=O)Nc1cccc(-c2nc3cc(Nc4nc(-c5ccncc5)cs4)c(C)cc3n2C)c1` [Compound 134, Ethanesulfonic acid {3-[1,6-dimethyl-5-(4-pyridin-4-yl-thiazol-2-ylamino)-1H-benzoimidazol-2-yl]-phenyl}-amide], the IC50 fell in the range of 1 to 10 µM.

Compound `Cc1cc2c(cc1Nc1nc(-c3ccncc3)cs1)nc(-c1cccc(F)c1)n2C` [Compound 124, [2-(3-Fluoro-phenyl)-1,6-dimethyl-1H-benzoimidazol-5-yl]-(4-pyridin-4-yl-thiazol-2-yl)-amine] gave an IC50 of no more than 1 µM.

The compound `Cn1c(-c2cccc(C(F)(F)F)c2)nc2cc(Nc3nc(-c4cccnc4)cs3)ccc21` [Compound 091, [1-Methyl-2-(3-trifluoromethyl-phenyl)-1H-benzoimidazol-5-yl]-(4-pyridin-3-yl-thiazol-2-yl)-amine] displayed an IC50 of 1 to 10 µM.

Compound `Cn1c(-c2cccc(C(F)F)c2)nc2cc(Nc3nc(-c4cccnc4)cs3)ccc21` [Compound 090, [2-(3-Difluoromethyl-phenyl)-1-methyl-1H-benzoimidazol-5-yl]-(4-pyridin-3-yl-thiazol-2-yl)-amine] gave an IC50 of 1 to 10 µM.

Consider `Cc1cccc(-c2nc3cc(C)c(Nc4nccc(-c5cccnc5)n4)cc3[nH]2)c1` [Compound 012, (6-Methyl-2-m-tolyl-3H-benzoimidazol-5-yl)-(4-pyridin-3-yl-pyrimidin-2-yl)-amine], for which the IC50 was 1 to 10 µM.
